Results from patent US9579306B2, “Substituted 2-imidazolidinones and 2-imidazolones and their use in the treatment of cancer” (UNIVERSITÉ LAVAL, priority 2011, dated 2017).

melting point [°C]	Structure (SMILES)
133 to 134	CCCN1CCN(c2ccc(S(=O)(=O)Oc3cc(OC)c(OC)c(OC)c3)cc2)C1=O [Compound 101, 3,4,5-trimethoxyphenyl 4-(2-oxo-3-propylimidazolidin-1-yl)benzenesulfonate]
104 to 105	CCCN1CCN(c2ccc(S(=O)(=O)Oc3cc(OC)cc(OC)c3)cc2)C1=O [Compound 104, 3,5-dimethoxyphenyl 4-(2-oxo-3-propylimidazolidin-1-yl)benzenesulfonate]
